According to patent US20100311608A1, “METHOD TO PREPARE MAGNETIC BEADS CONJUGATED WITH SMALL COMPOUNDS” (RIKEN, priority 2009, published 2010):

Tested on: THP-1 cells
Test: Amount of TNF-α released from THP-1 cells
Assay type: cell-based, human
Details: free body, 37° C. for 4 hours, FIG. 8
Method: Human monocyte leukemia-derived THP-1 cells (ATCC) were cultured in an RPMI1640 medium (Invitrogen/GIBCO). To the medium, 10% fetal bovine serum (JRH Bioscience), 1 mM sodium pyruvate (Invitrogen/GIBCO), 100 units/mL penicillin, and 100 μg/mL streptomycin (Invitrogen/GIBCO) were added.
(1) The cultured Jurkat cells, derived from human T-lymphocyte leukemia cells, were recovered (1×10^6/mL), and the thus recovered cells were then centrifuged at 1000 rpm for 10 minutes. (2) After a supernatant had been removed, the residue was washed with PBS (137 mM NaCl, 3 mM KCl, 9 mM NaHPO4, 1.5 mM KH2PO4, pH 7.4). (3) The cells were suspended in 300 μL of Binding buffer ([…] Tris-HCl, 150 mM NaCl, protease inhibitor cocktail, pH 7.5). (4) The cells were disintegrated by an ultrasonic wave treatment, and the disintegration of the cells was then observed under a microscope. […] (6) The protein concentration in the cell extract of the supernatant was measured, and the extract was then diluted with Lysis buffer (137 mM NaCl, 3 mM KCl, 9 mM NaHPO4, 1.5 mM KH2PO4, protease inhibitor cocktail, pH 7.4), resulting in a final protein concentration of 5 mg/mL. […] The amount of TNF-α contained in this supernatant was measured. […] (9) 50 μL of Stop solution was added to the resultant, and the absorption spectrum at 450 nm was then measured. […]

Lipid A
responsiveness in the THP cells (TNF-α release): not so high
